Source: PMC5599463, “PK/PD studies on non-selective PDE inhibitors in rats using cAMP as a marker of pharmacological response” (Naunyn-Schmiedeberg's Archives of Pharmacology, 2017)
Like-named read-outs stand apart in the source and are kept apart here.

Assays:
TNF-α plasma levels = assay: Plasma TNF-α levels in endotoxemic rats (ELISA); assay type: in vivo, Male Wistar rats; details: both doses (40 and 80 mg kg^−1 i.v.) with LPS, 90 min, p < 0.05
Experimental: (§1) All compounds were directly dissolved in 0.9% sterile saline and used within 1 day of preparation. The animals were divided into five groups (n = 3–4). […] All injections (1 mL kg^−1) were given to the tail vein of the rat under isoflurane anaesthesia. […] Subsequently, samples were kept on ice and centrifuged for 10 min at 3000×g at 4 °C (EBA 12 R, Hettich, Germany). The individual plasma samples were harvested and stored at −80 °C until analysis.
Plasma TNF-α levels were measured by rat TNF-α Quantikine ELISA kit (R&D Systems, Minneapolis, MN, USA) according to the manufacturer’s protocol. The limit of quantification was 12.5 pg mL^−1.
(§2) The peak cAMP and TNF-α plasma levels following administration of LPS alone or LPS simultaneously with both doses of each compound were compared using a one-way ANOVA and Tukey’s HSD post hoc test. The normality of data distribution was checked by Shapiro–Wilk test. The relationship between decimal logarithms of peak cAMP and TNF-α plasma concentrations was verified by least squares linear regression analysis. All statistical analyses were performed using Statistica v. 12 (StatSoft Inc., USA). The significance level p was set at 0.05.

[1] = Pharmacokinetics after i.v. administration to endotoxemic rats (compartmental modelling); assay type: in vivo, Male Wistar rats
Experimental: as §1
Then, the samples were extracted with 3 mL of dichloromethane for 20 min on a shaker (VXR Vibrax, IKA, Germany). Subsequently, all tubes were centrifuged (2000×g, 15 min) and organic layers were transferred to new glass tubes and evaporated under gentle stream of nitrogen at 37 °C. Dry residues were dissolved in 100 μL of mobile phase and placed in the autosampler vials. The volume of injection was set to 50 μL. The HPLC system (LaChrom Elite, Merck-Hitachi, Darmstadt, Germany) consisted of an L-2130 pump, an L-2200 autosampler, an L-2450 diode array detector and an L-2350 column oven. EZChrome Elite v. 3.2 (Merck-Hitachi) software was used for data acquisition. The analysis was performed on a LiChrospher 100 RP-18 column (250 mm × 4 mm) with a particle size of 5 μm protected with a LiChroCART (4 mm × 4 mm) guard column (Merck, Germany). The mobile phase consisted of dioxan, acetonitrile and aqueous solution of acetic acid (pH = 3.0) mixed at the ratio of 6.5:6.5:87 (v/v/v), respectively, and pumped at a flow rate of 1.2 mL min^−1. Analytical wavelength was set to 275 nm and temperature of separation was 35 °C.
To this end, one- or two-compartment pharmacokinetic models with linear or Michaelis–Menten type saturable elimination from the central compartment were tested. Both dose levels in each case were simultaneously fitted to obtain a single set of parameters. The final pharmacokinetic models for PTX and (±)-LSF were selected on the basis of visual inspection of the fitting, examination of residuals, parameter precision, Akaike Information Criteria (AIC), Bayesian Information Criteria (BIC) and analysis of the correlation matrix. Pharmacokinetic analysis was performed using Phoenix WinNonlin v. 6.3 (Pharsight Corp, Certara, St. Louis, MO, USA).

[2] = tested on: cAMP levels in rat plasma; assay: PK/PD (IDR model II) of plasma cAMP in LPS-challenged rats; assay type: in vivo, Male Wistar rats; details: for cAMP levels in rat plasma after administration: 40 or 80 mg kg^−1 i.v. with LPS; for IC50: Rattus norvegicus
Experimental: as §1
The levels of cAMP in rat plasma were measured using the same HPLC system and a fluorescence detector (model FL-2485). The analysis was performed after incubation of plasma with 2-chloroacetaldehyde as a derivatization reagent in elevated temperature to form the fluorescing derivative—1,N^6-etheno-cAMP. To 100 μL of plasma (or plasma spiked with water standard solution of cAMP), 15 μL of 2 M 2-chloroacetaldehyde solution and 50 μL of 0.5 M acetate buffer (pH = 4.5) were added to a snap-cap tubes. Samples were then vortex-mixed (Reax top, Heidolph, Germany) for 20 s and incubated at 80 °C for 20 min. Thereafter, the reaction mixture was cooled on ice, the samples were centrifuged (3000×g, 10 min) and 100 μL of supernatants was placed in the autosampler vials. The volume of injection was 50 μL. The separation was performed at isocratic conditions at 35 °C using the mobile phase composed of 20 mM citric-phosphate buffer (pH = 3.2) and methanol mixed at the ratio of 91:9 (v/v) and pumped at a flow rate of 1.3 mL min^−1. The excitation and emission wavelengths were set to 280 and 420 nm, respectively. In these conditions, the retention time of 1,N^6-etheno-cAMP was 6 min.
Changes in plasma cAMP concentrations (CcAMP) over time following each compound administration may be described by the following equation:
1 dCcAMP/dt=kin−kout⋅It⋅CcAMP
3 It=1−Imax⋅Cp^γ/IC50^γ+Cp^γ
The second approach assumes that both compounds under investigation act with different potencies. Based on the results of the in vitro study, an additive interaction model was used (Eq. 4):
I max and γ in Eqs. (3) and (4) were fixed to 1 during fitting procedure.
as §2

[3] = tested on: plasma cAMP concentrations; design: method as in Cheng et al. [1997]; details: ref Cheng et al. [1997], cited from earlier work; for plasma cAMP concentrations in mice: 10 mg kg^−1 p.o.; for cAMP levels in mice: 10 times higher dose than that of the PDE4 inhibitors (10 mg kg^−1 p.o.)
[4] = biological target: T1, human recombinant PDE7A (hrPDE7A) (Homo sapiens, UniProt Q13946); assay: PDE-Glo Phosphodiesterase Assay, hrPDE7A inhibition; assay type: biochemical; details: for IC50: hrPDE7A, non-linear regression, in vitro
T1 construct: purchased SignalChem, Richmond, Canada
T1 sequence (Q13946 whole entry): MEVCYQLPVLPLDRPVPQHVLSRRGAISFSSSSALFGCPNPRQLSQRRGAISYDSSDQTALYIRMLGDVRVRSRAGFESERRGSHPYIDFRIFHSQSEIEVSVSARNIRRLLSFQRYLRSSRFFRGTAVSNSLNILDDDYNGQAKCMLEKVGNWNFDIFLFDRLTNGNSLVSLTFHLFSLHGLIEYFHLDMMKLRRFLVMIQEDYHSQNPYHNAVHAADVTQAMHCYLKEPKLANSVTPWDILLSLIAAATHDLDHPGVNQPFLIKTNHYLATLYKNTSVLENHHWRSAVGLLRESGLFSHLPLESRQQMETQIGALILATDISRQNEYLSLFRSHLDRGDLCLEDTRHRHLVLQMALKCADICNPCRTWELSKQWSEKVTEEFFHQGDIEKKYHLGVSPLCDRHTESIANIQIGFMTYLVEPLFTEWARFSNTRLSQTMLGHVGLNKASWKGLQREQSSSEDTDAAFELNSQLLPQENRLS
Experimental: (§3) Briefly, 1,5 μl of 1× PDE-Glo reaction buffer containing 10 mU of purified hrPDE4B or hrPDE7A (SignalChem, Richmond, Canada) was pipetted into 384-well plate wells (Thermo Scientific, USA). The tested compounds were dissolved in DMSO, and a serial dilution of the inhibitors was performed using 1× PDE-Glo reaction buffer. Then, 1 μL of diluted inhibitors and 2.5 μL of cAMP solution were added to each well. After 10 min of incubation in 30 °C, 2.5 μL of PDE-Glo™ Termination Buffer and 2.5 μL of PDE-Glo™ Detection Solution were added and the plate was incubated for 20 min at room temperature. Finally, 10 μL of Kinase-Glo® Reagent was pipetted to each well and after 10 min of incubation, the luminescence was measured using a microplate luminometer (POLARstar Omega, BMG LABTECH, Ortenberg, Germany). All data points are the average of two determinations.

[5] = biological target: T2, human recombinant PDE4B (hrPDE4B) (Homo sapiens, UniProt Q07343); assay: PDE-Glo Phosphodiesterase Assay, hrPDE4B inhibition; assay type: biochemical; details: non-linear regression, in vitro
T2 construct: purchased SignalChem, Richmond, Canada
T2 sequence (Q07343 whole entry): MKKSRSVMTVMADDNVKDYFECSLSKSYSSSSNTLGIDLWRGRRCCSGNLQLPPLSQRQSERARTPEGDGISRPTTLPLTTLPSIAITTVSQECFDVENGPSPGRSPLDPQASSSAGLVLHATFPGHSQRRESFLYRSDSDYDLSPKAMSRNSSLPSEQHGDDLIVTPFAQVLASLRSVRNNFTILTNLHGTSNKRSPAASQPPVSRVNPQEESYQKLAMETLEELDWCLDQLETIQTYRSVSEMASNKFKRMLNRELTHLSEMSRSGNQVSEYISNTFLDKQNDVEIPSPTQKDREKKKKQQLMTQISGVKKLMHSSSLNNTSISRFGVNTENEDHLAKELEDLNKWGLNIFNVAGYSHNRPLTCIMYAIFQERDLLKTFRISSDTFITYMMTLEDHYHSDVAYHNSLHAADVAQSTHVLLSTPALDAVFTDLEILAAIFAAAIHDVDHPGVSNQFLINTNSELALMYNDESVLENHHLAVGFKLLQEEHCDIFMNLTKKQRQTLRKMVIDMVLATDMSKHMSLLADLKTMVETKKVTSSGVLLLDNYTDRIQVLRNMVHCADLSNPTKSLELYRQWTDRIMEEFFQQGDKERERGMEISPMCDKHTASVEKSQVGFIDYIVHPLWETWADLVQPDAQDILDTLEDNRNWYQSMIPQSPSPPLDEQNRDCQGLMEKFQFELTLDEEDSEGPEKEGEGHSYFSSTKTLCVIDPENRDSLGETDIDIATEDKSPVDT
Experimental: as §3, with “The” for “Briefly, 1,5 μl of 1× PDE-Glo reaction buffer containing 10 mU of purified hrPDE4B or hrPDE7A (SignalChem, Richmond, Canada) was pipetted into 384-well plate wells (Thermo Scientific, USA). The”

cAMP plasma levels = details: cited from earlier work
[6] = tested on: IL-12-induced murine T helper 1 (Th1) differentiation; design: method as in Bright et al. [1998]; details: dose-dependent manner; ref Bright et al. [1998]; cited from earlier work
[7] = design: method as in Wyska et al. [2007]; details: mice; ref Wyska et al. [2007]; cited from earlier work
[8] = tested on: plasma cAMP concentration; design: method as in Tanahashi et al. [1999]; details: ref Tanahashi et al. [1999]; cited from earlier work
[9] = tested on: plasma cAMP concentrations; assay: Plasma cAMP in rats with endotoxemia after i.p. theophylline (own unpublished data); assay type: in vivo; details: i.p. 50 mg kg^−1, 0.5 h after administration
[10] = Interaction indirect response model II, rats challenged with LPS, i.v., read-out: IC50 (plasma concentration producing 50% of maximum inhibition of cAMP kout), final estimate (CV%)
[11] = interaction IDR model II, endotoxemic rats, read-out: IC50 calculated using PK/PD model after conversion to

CC(O)CCCCn1c(=O)c2c(ncn2C)n(C)c1=O (racemic) [(±)-LSF, (±)-1-(5-hydroxyhexyl)-3,7-dimethylpurine-2,6-dione]
TNF-α concentrations in plasma of endotoxemic rats (TNF-α plasma levels): significant decrease
VLSF (volume of (±)-LSF compartment), final estimate (CV%) ([1]; (±)-LSF parent drug, i.v. 40 and 80 mg kg^−1, endotoxemic rats, one-compartment Michaelis-Menten model): 1.22 (3.44) L kg^−1
Km ([1]; male, Wistar, rat, plasma, iv, (±)-LSF parent drug, i.v., endotoxemic rats, read-out: Km (drug concentration at which elimination rate is half-maximal), final estimate (CV%)): 6.02 µg/mL
cAMP levels in rat plasma after administration [2]: increase in cAMP levels in rat plasma in a dose-dependent manner
lower in vivo IC50 value compared to PTX ([2]; PK/PD model, rats): approximately 20%
IC50 [2, 10]: 3.43 µg/mL
IC50 [2, 11]: 12.2 µM
peak cAMP level in comparison with the group receiving LPS only ([2]; dose of 40 mg kg^−1 i.v. with LPS 1 mg kg^−1, p > 0.05): did not increase

COc1ccc(C2CNC(=O)NC2)cc1O[C@H]1C[C@@H]2CC[C@H]1C2 [CP-80,633]
plasma cAMP concentrations in mice [3]: increased plasma cAMP concentrations

CC(C)Cn1c(=O)n(C)c(=O)c2[nH]cnc21 [IBMX, 1-methyl-3-(2-methylpropyl)-7H–purine-2,6-dione]
IC50 [4]: 77.7 µM
IC50 [5]: 46.6 µM

CC(=O)CCCCn1c(=O)c2c(ncn2C)n(C)c1=O [PTX, 1-(5-oxohexyl)-3,7-dimethylpurine-2,6-dione]
IC50 [4]: > 500 µM
activity as inhibitor of hrPDE7A ([4]; in vitro assay): ineffective
TNF-α concentrations in plasma of endotoxemic rats (TNF-α plasma levels): significant decrease
cAMP plasma levels elevation compared to the placebo group (cAMP plasma levels; healthy subjects, i.v. infusion 300 mg in 1 h, measured 1 h from beginning of infusion, ref Kruuse et al. [2000]): approximately 50%
half-life ([1]; male, Wistar, rat, plasma, iv, rats, i.v., read-out: elimination half-life (t0.5)): 16.4 min
k el ([1]; male, Wistar, rat, plasma, iv, read-out: ke (rate constant for disappearance of parent compound), final estimate (CV%) (converted)): 0.000933 s⁻¹
cAMP levels in rat plasma after administration [2]: increase in cAMP levels in rat plasma in a dose-dependent manner
IC50 [2, 10]: 4.48 µg/mL
IC50 [2, 11]: 16.1 µM

C[C@@H](O)CCCCn1c(=O)c2c(ncn2C)n(C)c1=O [R-(-)-LSF]
inhibition of IL-12-induced murine Th1 differentiation [6]: inhibited
Km [7]: 15.08 mg/L
Vmax [7]: 2.33 mg/min/kg
IC50 [4]: 266 µM
IC50 [5]: 49.1 µM

C[C@H](O)CCCCn1c(=O)c2c(ncn2C)n(C)c1=O [S-(+)-LSF]
IC50 [4]: 328 µM
IC50 [5]: 52.5 µM

CC(=O)Nc1ccc(-c2c[nH]c(=O)cn2)cc1 [SKF-94,120]
cAMP levels in mice [3]: failed to alter cAMP levels significantly

CN(C(=O)CCCOc1ccc2[nH]c(=O)ccc2c1)C1CCCCC1 [cilostamide]
plasma cAMP concentration in dogs [8]: no

OCCN(CCO)c1nc(N2CCCCC2)c2nc(N(CCO)CCO)nc(N3CCCCC3)c2n1 [dipyridamole]
cAMP levels in mice [3]: failed to alter cAMP levels significantly

COc1ccc2[nH]cc(CCNC(C)=O)c2c1 [melatonin]
cAMP plasma levels in humans (cAMP plasma levels; administered orally, 1 h following administration, ref Zhdanova and Raz [1999]): significantly augmented

COc1ccc(C2CNC(=O)C2)cc1OC1CCCC1 (centres unmarked) [rolipram]
plasma cAMP concentration in dogs [8]: elevated plasma cAMP concentration in dogs in a dose-dependent manner
plasma cAMP concentrations in mice [3]: increased plasma cAMP concentrations

Cn1c(=O)c2[nH]cnc2n(C)c1=O [theophylline]
plasma levels of cAMP ([3]; mice, orally 100 mg kg^−1, 20 min post-dose): 296.9 pmol/mL
plasma concentrations of cAMP [9]: 228.22 pmol/mL

CCCSc1nc(N[C@@H]2C[C@H]2c2ccc(F)c(F)c2)c2nnn([C@@H]3C[C@H](OCCO)[C@@H](O)[C@H]3O)c2n1 [ticagrelor]
levels of cAMP in treated patients (cAMP plasma levels; patients, ref Li et al. [2017]): Elevated levels of cAMP

CCOC(=O)C1=C[C@]2(CC)CCCN3CCc4c(n1c1ccccc41)[C@@H]32 [vinpocetine]
cAMP levels in mice [3]: failed to alter cAMP levels significantly

CCCOc1ccccc1-c1nc2nn[nH]c2c(=O)[nH]1 [zaprinast]
cAMP levels in mice [3]: failed to alter cAMP levels significantly
